The results in this text go back to patent US20040014637A1, “Mechanism for the inactivation of insulin receptor and uses in the treatment of type II diabetes” (McGill University, priority 1998, published 2004).

The target of one experiment is T1, EGF receptor (Rattus norvegicus, UniProt G3V6K6).
T1 construct: from tissue; host or cells: rat liver endosomes after EGF injection in vivo
The experiment is described as follows: EGF receptor autophosphorylation in endosomes in the presence and absence of ATP. Conditions: ENs from EGF-treated rats incubated with 5 mM ATP. Type of experiment: biochemical. The procedure: EGF (10 μg/100 g body weight) was injected via the jugular vein into anesthetized rats. The animals were sacrificed by decapitation 15 mins later and ENs containing EGF receptor were prepared as noted above. Resuspended ENs containing EGF receptor were incubated for 15 mins with 5 mM ATP after which auto-phosphorylation was initiated by adding ^32P-ATP. The reaction was stopped after 15 mins of incubation at 37° C. by adding Laemmli sample buffer after which aliquots (100 μg protein) were subjected to SDS-PAGE, alkali digestion, and radioautography as described previously (Faure, R. et al. (1992) J. Biol. Chem. 267, 11215-11221).
We then determined whether preincubation with ATP attenuated EGF receptor autophosphorylation. […] EN fractions, prepared 15 mins after injecting rats with EGF (10 μg/100 g body weight), were incubated in the presence or absence of ATP (5 mM) prior to conducting autophosphorylation with ^32P-ATP, SDS-PAGE, and autoradiography.

For experiment [1], the target named is T2, insulin receptor kinase (IRK) β-subunit (Rattus norvegicus, UniProt P15127).
T2 construct: from tissue; host or cells: rat liver; endosome (EN) and plasma membrane (PM) fractions
The experiment is described as follows: 2-D phosphoamino acid analysis of the IRK β-subunit. Type of experiment: biochemical. Conditions: ENs incubated with 1 or 5 mM γ-32P ATP, 15 min 37° C. The procedure: ENs containing IR were removed from the 0.6/1.0 M sucrose interface of the gradient used in endosomal purification, and diluted with 0.25 M sucrose to a final protein concentration of 50 μg/ml. A 30 ml aliquot was centrifuged at 200,000×gav for 40 mins prior to resuspending in 500 μl of cell-free system buffer (44 mM HEPES (pH 7.4), 0.55 M sucrose, 333 mM KCl, 11 mM NaCl, 11 mM MgCl2). Incubations were initiated by adding 500 μl of 10 mM Tricine buffer containing either 2 or 10 mM ATP at a specific activity of 0.5 mCi ^32P/mmol. After incubating for 15 min at 37° C. the reaction was stopped by adding an equal volume of ice-cold 20 mM HEPES, 0.25 M sucrose, 2 mM PMSF, 2 mM benzamidine, 4 mM Na orthovanadate and 80 mM Na fluoride. […]
Previous work has shown that serine/threonine phosphorylation of the β-subunit of the IRK results in an inhibition of IRK activity. We thus determined if incubating ENs containing IR with 5 mM ATP promotes the phosphorylation of IRK on serine and threonine residues. […]

The structures appear in SMILES notation.

T2 sequence (P15127 27-759 limits assumed): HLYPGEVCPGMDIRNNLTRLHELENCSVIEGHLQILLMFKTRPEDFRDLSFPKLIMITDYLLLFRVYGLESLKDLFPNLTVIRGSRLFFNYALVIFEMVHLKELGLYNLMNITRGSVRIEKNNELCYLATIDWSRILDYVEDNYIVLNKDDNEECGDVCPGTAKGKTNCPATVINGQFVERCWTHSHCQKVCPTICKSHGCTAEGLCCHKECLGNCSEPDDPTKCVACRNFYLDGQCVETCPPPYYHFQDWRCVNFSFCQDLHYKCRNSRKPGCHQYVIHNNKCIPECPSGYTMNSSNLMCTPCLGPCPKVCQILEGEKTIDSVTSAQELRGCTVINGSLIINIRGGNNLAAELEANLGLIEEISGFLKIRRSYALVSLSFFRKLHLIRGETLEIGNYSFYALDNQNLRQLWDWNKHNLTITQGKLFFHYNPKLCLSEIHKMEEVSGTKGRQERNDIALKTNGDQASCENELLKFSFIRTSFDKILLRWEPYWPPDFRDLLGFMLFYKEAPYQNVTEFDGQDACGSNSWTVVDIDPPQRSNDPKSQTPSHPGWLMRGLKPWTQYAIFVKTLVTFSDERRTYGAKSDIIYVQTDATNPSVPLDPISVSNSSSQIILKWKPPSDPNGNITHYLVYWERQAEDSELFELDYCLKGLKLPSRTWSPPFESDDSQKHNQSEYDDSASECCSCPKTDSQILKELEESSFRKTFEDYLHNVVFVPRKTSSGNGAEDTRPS
T2 sequence (P15127 764-1383 limits assumed): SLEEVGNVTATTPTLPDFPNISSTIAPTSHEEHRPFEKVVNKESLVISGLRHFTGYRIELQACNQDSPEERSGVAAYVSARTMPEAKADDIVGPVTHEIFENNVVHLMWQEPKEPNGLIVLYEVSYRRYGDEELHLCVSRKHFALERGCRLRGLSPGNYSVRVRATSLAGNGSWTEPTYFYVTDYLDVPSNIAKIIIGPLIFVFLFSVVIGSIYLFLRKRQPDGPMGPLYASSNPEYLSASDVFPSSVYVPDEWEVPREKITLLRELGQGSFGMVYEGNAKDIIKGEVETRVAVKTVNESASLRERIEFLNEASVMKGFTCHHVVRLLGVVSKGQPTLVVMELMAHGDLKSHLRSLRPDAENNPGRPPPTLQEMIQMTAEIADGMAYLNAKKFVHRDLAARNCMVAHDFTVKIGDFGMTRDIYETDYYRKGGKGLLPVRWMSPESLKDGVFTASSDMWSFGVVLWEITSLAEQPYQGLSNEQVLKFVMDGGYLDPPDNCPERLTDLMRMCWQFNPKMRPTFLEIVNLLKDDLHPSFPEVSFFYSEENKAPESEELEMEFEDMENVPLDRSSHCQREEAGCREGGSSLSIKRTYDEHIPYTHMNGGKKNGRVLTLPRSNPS
T1 sequence (G3V6K6 25-1209): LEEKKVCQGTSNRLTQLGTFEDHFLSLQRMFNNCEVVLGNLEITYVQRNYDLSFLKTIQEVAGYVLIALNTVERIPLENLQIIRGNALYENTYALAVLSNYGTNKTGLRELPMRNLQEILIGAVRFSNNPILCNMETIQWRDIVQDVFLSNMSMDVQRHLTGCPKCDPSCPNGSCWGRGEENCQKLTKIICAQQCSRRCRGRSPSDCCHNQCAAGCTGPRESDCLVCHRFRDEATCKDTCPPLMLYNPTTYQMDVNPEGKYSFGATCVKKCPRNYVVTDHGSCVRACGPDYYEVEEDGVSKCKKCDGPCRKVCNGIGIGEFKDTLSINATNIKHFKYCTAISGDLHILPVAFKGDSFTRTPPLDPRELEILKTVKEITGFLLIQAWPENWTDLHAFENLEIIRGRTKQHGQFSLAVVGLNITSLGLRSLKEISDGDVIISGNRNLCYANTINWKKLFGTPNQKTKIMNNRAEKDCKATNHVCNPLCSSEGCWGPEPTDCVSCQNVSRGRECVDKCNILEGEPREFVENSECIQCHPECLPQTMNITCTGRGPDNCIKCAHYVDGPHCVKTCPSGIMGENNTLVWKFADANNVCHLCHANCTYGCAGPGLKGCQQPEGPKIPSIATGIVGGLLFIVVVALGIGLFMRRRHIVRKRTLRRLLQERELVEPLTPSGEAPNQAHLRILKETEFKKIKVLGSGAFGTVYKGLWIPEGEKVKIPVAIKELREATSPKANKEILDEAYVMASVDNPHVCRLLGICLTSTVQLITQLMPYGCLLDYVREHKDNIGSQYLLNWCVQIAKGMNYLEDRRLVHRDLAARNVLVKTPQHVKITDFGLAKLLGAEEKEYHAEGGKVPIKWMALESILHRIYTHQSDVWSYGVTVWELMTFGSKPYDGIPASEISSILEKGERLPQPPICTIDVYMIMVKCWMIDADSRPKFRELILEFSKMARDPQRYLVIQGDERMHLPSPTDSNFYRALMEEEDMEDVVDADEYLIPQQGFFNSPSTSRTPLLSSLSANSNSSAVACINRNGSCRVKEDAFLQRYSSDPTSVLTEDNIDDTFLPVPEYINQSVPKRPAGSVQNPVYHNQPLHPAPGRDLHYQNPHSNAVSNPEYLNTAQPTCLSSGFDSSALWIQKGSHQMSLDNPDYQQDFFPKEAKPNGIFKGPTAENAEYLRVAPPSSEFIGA

For the compound `Nc1ncnc2c1ncn2[C@@H]1O[C@H](COP(=O)(O)OP(=O)(O)OP(=O)(O)O)[C@@H](O)[C@H]1O` [ATP, adenosine 5′triphosphate], on EGF receptor, the “32P-labeling (autophosphorylation) of the EGF receptor (FIG. 3B)” value is given as “no significant attenuation”. The “32P phosphoserine in IRK β-subunit (FIG. 5)” value in experiment [1] is “no detectable”.
